Assay results as given in patent publication US20260069588A1, “VEPDEGESTRANT FOR USE IN TREATING CANCER” (Arvinas Operation, Inc., priority 2022, published 2026).

Experiment: Phase 1 single agent studies in Japanese and Chinese participants (C4891016, C4891018): adverse events
[1] = TEAE treatment related, 200 mg, N = 15

Text: TEAE's from participants in both studies have been combined and are described below.

O=C1CC[C@H](N2Cc3cc(N4CCN(CC5CCN(c6ccc([C@@H]7c8ccc(O)cc8CC[C@@H]7c7ccccc7)cc6)CC5)CC4)ccc3C2=O)C(=O)N1 [Compound A, (S)-3-(5-(4-((1-(4-((1R,2S)-6-hydroxy-2-phenyl-1,2,3,4-tetrahydronaphthalen-1-yl)phenyl)piperidin-4-yl)methyl)piperazin-1-yl)-1-oxoisoindolin-2-yl)piperidine-2,6-dione]
Gastrointestinal disorders, Grade 3 [1]: 0 n (%) | Gastrointestinal disorders, Grade 4 [1]: 0 n (%) | Gastrointestinal disorders, Grade 5 [1]: 0 n (%) | Gastrointestinal disorders, Missing or Unknown [1]: 0 n (%) | Gastrointestinal disorders, Total [1]: 4 (26.7) n (%) | General disorders and administration site conditions, Grade 1 [1]: 0 n (%) | General disorders and administration site conditions, Grade 2 [1]: 1 (6.7) n (%) | General disorders and administration site conditions, Grade 3 [1]: 0 n (%) | General disorders and administration site conditions, Grade 4 [1]: 0) n (%) | General disorders and administration site conditions, Grade 5 [1]: 0 n (%) | General disorders and administration site conditions, Missing or Unknown [1]: 0 n (%) | General disorders and administration site conditions, Total [1]: 1 (6.7) n (%) | Headache, Grade 1 [1]: 1 (6.7) n (%) | Headache, Grade 2 [1]: 0 n (%) | Headache, Grade 3 [1]: 0 n (%) | Headache, Grade 4 [1]: 0 n (%) | Headache, Grade 5 [1]: 0 n (%) | Headache, Missing or Unknown [1]: 0 n (%) | Headache, Total [1]: 1 (6.7) n (%) | Hyperuricemia, Grade 1 [1]: 2 (13.3) n (%) | Hyperuricemia, Grade 2 [1]: 0 n (%) | Hyperuricemia, Grade 3 [1]: 0 n (%) | Hyperuricemia, Grade 4 [1]: 0 n (%) | Hyperuricemia, Grade 5 [1]: 0 n (%) | Hyperuricemia, Missing or Unknown [1]: 0 n (%) | Hyperuricemia, Total [1]: 2 (13.3) n (%) | Hypokalemia, Grade 1 [1]: 1 (6.7) n (%) | Hypokalemia, Grade 2 [1]: 0 n (%) | Hypokalemia, Grade 3 [1]: 0 n (%) | Hypokalemia, Grade 4 [1]: 0 n (%) | Hypokalemia, Grade 5 [1]: 0 n (%) | Hypokalemia, Missing or Unknown [1]: 0 n (%) | Hypokalemia, Total [1]: 1 (6.7) n (%) | Hypophosphatasemia, Grade 1 [1]: 1 (6.7) n (%) | Hypophosphatasemia, Grade 2 [1]: 0 n (%) | Hypophosphatasemia, Grade 3 [1]: 0 n (%) | Hypophosphatasemia, Grade 4 [1]: 0 n (%) | Hypophosphatasemia, Grade 5 [1]: 0 n (%) | Hypophosphatasemia, Missing or Unknown [1]: 0 n (%) | Hypophosphatasemia, Total [1]: 1 (6.7) n (%) | Investigations, Grade 1 [1]: 4 (26.7) n (%) | Investigations, Grade 2 [1]: 1 (6.7) n (%) | Investigations, Grade 3 [1]: 2 (13.3) n (%) | Investigations, Grade 4 [1]: 0 n (%) | Investigations, Grade 5 [1]: 0 n (%) | Investigations, Missing or Unknown [1]: 0 n (%) | Investigations, Total [1]: 7 (46.7) n (%) | Metabolism and nutrition disorders, Grade 1 [1]: 3 (20.0) n (%) | Metabolism and nutrition disorders, Grade 2 [1]: 0 n (%) | Metabolism and nutrition disorders, Grade 3 [1]: 0 n (%) | Metabolism and nutrition disorders, Grade 4 [1]: 0 n (%) | Metabolism and nutrition disorders, Grade 5 [1]: 0) n (%) | Metabolism and nutrition disorders, Missing or Unknown [1]: 0 n (%) | Metabolism and nutrition disorders, Total [1]: 3 (20.0) n (%) | Musculoskeletal and connective tissue disorders, Grade 1 [1]: 1 (6.7) n (%) | Musculoskeletal and connective tissue disorders, Grade 2 [1]: 0) n (%) | Musculoskeletal and connective tissue disorders, Grade 3 [1]: 0 n (%) | Musculoskeletal and connective tissue disorders, Grade 4 [1]: 0 n (%) | Musculoskeletal and connective tissue disorders, Grade 5 [1]: 0 n (%) | Musculoskeletal and connective tissue disorders, Missing or Unknown [1]: 0 n (%) | Musculoskeletal and connective tissue disorders, Total [1]: 1 (6.7) n (%) | Nausea, Grade 1 [1]: 1 (6.7) n (%) | Nausea, Grade 2 [1]: 0 n (%) | Nausea, Grade 3 [1]: 0 n (%) | Nausea, Grade 4 [1]: 0 n (%) | Nausea, Grade 5 [1]: 0 n (%) | Nausea, Missing or Unknown [1]: 0 n (%) | Nausea, Total [1]: 1 (6.7) n (%) | Nervous system disorders, Grade 1 [1]: 2 (13.3) n (%) | Nervous system disorders, Grade 2 [1]: 0 n (%) | Nervous system disorders, Grade 3 [1]: 0 n (%) | Nervous system disorders, Grade 4 [1]: 0 n (%) | Nervous system disorders, Grade 5 [1]: 0 n (%) | Nervous system disorders, Missing or Unknown [1]: 0 n (%) | Nervous system disorders, Total [1]: 2 (13.3) n (%) | Neutrophil count decreased, Grade 1 [1]: 1 (6.7) n (%) | Neutrophil count decreased, Grade 2 [1]: 0 n (%) | Neutrophil count decreased, Grade 3 [1]: 1 (6.7) n (%) | Neutrophil count decreased, Grade 4 [1]: 0 n (%) | Neutrophil count decreased, Grade 5 [1]: 0 n (%) | Neutrophil count decreased, Missing or Unknown [1]: 0 n (%) | Neutrophil count decreased, Total [1]: 2 (13.3) n (%) | Pain, Grade 1 [1]: 0 n (%) | Pain, Grade 2 [1]: 1 (6.7) n (%) | Pain, Grade 3 [1]: 0 n (%) | Pain, Grade 4 [1]: 0 n (%) | Pain, Grade 5 [1]: 0 n (%) | Pain, Missing or Unknown [1]: 0 n (%) | Pain, Total [1]: 1 (6.7) n (%) | Participants with events, Grade 1 [1]: 7 (46.7) n (%) | Participants with events, Grade 2 [1]: 2 (13.3) n (%) | Participants with events, Grade 3 [1]: 2 (13.3) n (%) | Participants with events, Grade 4 [1]: 0 n (%) | Participants with events, Grade 5 [1]: 0 n (%) | Participants with events, Missing or Unknown [1]: 0 n (%) | Participants with events, Total [1]: 11 (73.3) n (%) | Platelet count decreased, Grade 1 [1]: 1 (6.7) n (%) | Platelet count decreased, Grade 2 [1]: 0 n (%) | Platelet count decreased, Grade 3 [1]: 0 n (%) | Platelet count decreased, Grade 4 [1]: 0 n (%) | Platelet count decreased, Grade 5 [1]: 0) n (%) | Platelet count decreased, Missing or Unknown [1]: 0 n (%) | Platelet count decreased, Total [1]: 1 (6.7) n (%) | Pruritus, Grade 1 [1]: 1 (6.7) n (%) | Pruritus, Grade 2 [1]: 0 n (%) | Pruritus, Grade 3 [1]: 0 n (%) | Pruritus, Grade 4 [1]: 0) n (%) | Pruritus, Grade 5 [1]: 0 n (%) | Pruritus, Missing or Unknown [1]: 0 n (%) | Pruritus, Total [1]: 1 (6.7) n (%) | Sinus bradycardia, Grade 1 [1]: 1 (6.7) n (%) | Sinus bradycardia, Grade 2 [1]: 0 n (%) | Sinus bradycardia, Grade 3 [1]: 0 n (%) | Sinus bradycardia, Grade 4 [1]: 0 n (%) | Sinus bradycardia, Grade 5 [1]: 0 n (%) | Sinus bradycardia, Missing or Unknown [1]: 0 n (%) | Sinus bradycardia, Total [1]: 1 (6.7) n (%) | Skin and subcutaneous tissue disorders, Grade 1 [1]: 2 (13.3) n (%) | Skin and subcutaneous tissue disorders, Grade 2 [1]: 0 n (%) | Skin and subcutaneous tissue disorders, Grade 3 [1]: 0 n (%) | Skin and subcutaneous tissue disorders, Grade 4 [1]: 0 n (%) | Skin and subcutaneous tissue disorders, Grade 5 [1]: 0 n (%) | Skin and subcutaneous tissue disorders, Missing or Unknown [1]: 0 n (%) | Skin and subcutaneous tissue disorders, Total [1]: 2 (13.3) n (%) | White blood cell count decreased, Grade 1 [1]: 0 n (%) | White blood cell count decreased, Grade 2 [1]: 0 n (%) | White blood cell count decreased, Grade 3 [1]: 1 (6.7) n (%) | White blood cell count decreased, Grade 4 [1]: 0 n (%) | White blood cell count decreased, Grade 5 [1]: 0 n (%) | White blood cell count decreased, Missing or Unknown [1]: 0 n (%) | White blood cell count decreased, Total [1]: 1 (6.7) n (%) | discontinuations due to TEAE (in vivo): No discontinuations reported due to TEAE
